Activity calls are given as the source filed them.
Experiments:
[1] = biological target: Cytochrome P450 3A4 (Homo sapiens, UniProt P08684);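 also: CYP3A4 tested as one member of a cytochrome P450 panel screen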
[2] = Luminescence Cell-Based Dose Confirmation HTS to Identify Activators of 5'UTR Stem-Loop Driven Alpha-Synuclein mRNA Translation in H4 Neuroglioblastoma Cells. [Related pubchem assays: 1829 (Project Summary), 1814 (Primary HTS)]; assay type: functional
[3] = Luminescence Cell-Based Dose Response HTS to Identify Activators of Luciferase Translation or Activity in H4 […] Cells. [Related pubchem assays: 1829 (Project Summary), 1814 (Primary HTS)]; assay type: functional
[4] = tested on: HeLa; test: ATP-based viability loss in HeLa cells – cell-based, CellTiter-Glo luminescence, cherry-pick samples, cytotoxicity control for MITF activator project, dose response (AID 540259); assay type: functional; details: Homo sapiens
[5] = tested on: H4; test: Luminescence Cell-Based Dose Response HTS to Identify Activators of 5'UTR Stem-Loop Driven Prion Protein mRNA Translation in H4 Neuroglioblastoma Cells. [Related pubchem assays: 1829 (Project Summary), 1814 (Primary HTS)]; assay type: functional; details: Homo sapiens
[6] = biological target: 5-hydroxytryptamine receptor 5A (Homo sapiens, UniProt P47898); test: Counterscreen for agonists of OPRM1-OPRD1 heterodimerization: luminescence-based cell-based high throughput dose response assay to identify agonists of 5-hydroxytryptamine (serotonin) 5A receptor (HTR5A). [Related pubchem assays (depositor defined):AID504326, AID504355, AID504692, AID504904, AID504905]; assay type: functional
[7] = biological target: Mu-type opioid receptor (Homo sapiens, UniProt P35372); test: (§1) Counterscreen for agonists of heterodimerization of the mu 1 (OPRM1) and delta 1 (OPRD1) opioid receptors: Luminescence-based cell-based high throughput dose response assay to identify agonists of OPRM1 homodimerization.; assay type: functional
[8] = biological target: Delta-type opioid receptor (Homo sapiens, UniProt P41143); test: as §1, with “of OPRD1” for “of OPRM1”, “homodimerization. [Related pubchem assays (depositor defined):AID504326, AID504355, AID504692, AID504904, AID504905]” for “homodimerization.”; assay type: functional
[9] = tested on: BJ; test: BJ-TERT-LT-ST fibroblast viability loss – cell-based, RAS-independent, luminescence, dose response (AID 1935); assay type: functional; details: Homo sapiens;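 also: BJ fibroblasts immortalized with TERT plus LT and ST oncogenes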
[10] = tested on: Streptococcus; test: GAS UMAA2166 growth inhibition – luminescence, BacTiterGlo, counter-screen for streptokinase expression inhibitor project, dose response (AID 1915); assay type: functional, organism-based;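 also: potency for reduction of bacterial viability or growth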
[11] = tested on: BJ; test: BJ-TERT fibroblast viability loss – cell-based, RAS-independent, luminescence, dose response (AID 1933); assay type: functional; details: Homo sapiens
[12] = DRD fibroblast viability loss – cell-based, non-viral oncogenic, luminescence, dose response (AID 1934); assay type: functional; details: Homo sapiens
[13] = tested on: BJ; test: cells; assay type: functional, cell-based; details: Homo sapiens
[14] = tested on: INS1; test: INS-1E survival protection against cytokine death – cell-based, luminescence, retest, dose response (AID 449756); assay type: functional; details: Rattus norvegicus;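 also: cell death triggered by IL-1 beta plus TNF-alpha plus IFN-gamma mixture; protective hits raise ATP signal compared with cytokine alone wells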
[15] = fluconazole-exposed Candida albicans growth modulators – fluorescence, retest, confirmation (AID 2467); assay type: functional, cell-based
[16] = tested on: HEK293; test: inhibition of NOD1-driven NF-kB reporter – cell-based, luminescence, uHTS, primary screen (AID 1578); assay type: functional; details: Homo sapiens
[17] = tested on: HEK293; test: NOD2 signaling inhibitors in MDP-stimulated cells, cell-based, uHTS, luminescence (AID 2001); assay type: functional; details: Homo sapiens
[18] = tested on: Streptococcus sp. 'group A'; test: Streptococcus pyogenes SK(-)GAS viability under kanamycin – luminescence, BacTiterGlo, confirmation, counter-screen for streptokinase expression inhibitor project, dose response (AID 1900); assay type: functional, organism-based
[19] = NIH-3T3 fibroblast cytotoxicity, dose response, cytotoxicity control, cell-based, fluorescence, Alamar Blue, secondary assay (AID 2327); assay type: functional;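 also: NIH-3T3 mouse fibroblasts cultured with fluconazole at 8 µg/mL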
[20] = biological target: Induced myeloid leukemia cell differentiation protein Mcl-1 (Homo sapiens, UniProt Q07820); assay type: functional
[21] = tested on: HEK293; test: cells; assay type: functional, cell-based; details: Homo sapiens
[22] = tested on: HEK293; test: cells; assay type: functional, cell-based; details: Homo sapiens; remark: listed apart in the source
[23] = biological target: T1, Ubiquitin-conjugating enzyme E2 N (Homo sapiens, UniProt P61088); assay type: functional;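 also: Dose-response confirmation in a TR-FRET assay detecting UBC13-driven polyubiquitin chain formation, inhibition measured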
T1 sequence (P61088 whole entry): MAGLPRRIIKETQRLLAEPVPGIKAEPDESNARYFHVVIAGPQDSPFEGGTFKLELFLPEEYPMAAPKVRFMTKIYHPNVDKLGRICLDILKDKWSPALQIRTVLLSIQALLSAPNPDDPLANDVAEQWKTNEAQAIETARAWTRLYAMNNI

[24] = tested on: Vero; test: cells; assay type: functional; details: Chlorocebus sabaeus
[25] = biological target: Cytochrome P450 2C9 (Homo sapiens, UniProt P11712)
[26] = biological target: Cytochrome P450 2C19 (Homo sapiens, UniProt P33261); test: Cytochrome panel assay with activity outcomes. Panel member name: p450-cyp2c19 Compounds with AC50 equal or less than 10 uM are considered active; assay type: functional; details: read-out: AC50
[27] = biological target: T2, Carboxy-terminal domain RNA polymerase II polypeptide A small phosphatase 1 (Homo sapiens, UniProt Q9GZU7); test: CTDSP1 inhibitors, concentration-response, biochemical, absorbance readout, ultra-high-throughput screen actives (AID 540297); assay type: functional
T2 sequence (Q9GZU7 whole entry): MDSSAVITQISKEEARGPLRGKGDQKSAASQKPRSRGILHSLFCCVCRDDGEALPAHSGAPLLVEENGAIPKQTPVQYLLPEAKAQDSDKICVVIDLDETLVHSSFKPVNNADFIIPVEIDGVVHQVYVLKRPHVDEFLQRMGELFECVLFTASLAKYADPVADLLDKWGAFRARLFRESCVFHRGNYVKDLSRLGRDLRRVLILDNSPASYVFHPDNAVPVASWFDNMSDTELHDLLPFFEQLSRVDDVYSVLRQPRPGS

Sequence of Cytochrome P450 3A4 (P08684 whole entry): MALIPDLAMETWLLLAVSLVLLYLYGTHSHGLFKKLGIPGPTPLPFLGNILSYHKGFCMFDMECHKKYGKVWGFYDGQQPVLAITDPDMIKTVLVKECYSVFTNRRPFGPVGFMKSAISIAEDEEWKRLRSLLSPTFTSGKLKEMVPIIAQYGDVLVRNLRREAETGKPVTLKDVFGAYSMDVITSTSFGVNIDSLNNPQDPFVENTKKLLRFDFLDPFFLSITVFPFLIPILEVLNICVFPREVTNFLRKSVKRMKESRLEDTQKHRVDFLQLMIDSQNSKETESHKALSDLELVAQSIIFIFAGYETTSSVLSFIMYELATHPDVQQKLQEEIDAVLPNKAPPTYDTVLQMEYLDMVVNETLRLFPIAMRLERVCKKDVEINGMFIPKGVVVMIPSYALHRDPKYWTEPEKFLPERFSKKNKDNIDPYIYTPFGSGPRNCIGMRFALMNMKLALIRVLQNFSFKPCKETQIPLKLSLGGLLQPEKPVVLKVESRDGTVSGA
Sequence of Cytochrome P450 2C19 (P33261 whole entry, the tested form may be a part): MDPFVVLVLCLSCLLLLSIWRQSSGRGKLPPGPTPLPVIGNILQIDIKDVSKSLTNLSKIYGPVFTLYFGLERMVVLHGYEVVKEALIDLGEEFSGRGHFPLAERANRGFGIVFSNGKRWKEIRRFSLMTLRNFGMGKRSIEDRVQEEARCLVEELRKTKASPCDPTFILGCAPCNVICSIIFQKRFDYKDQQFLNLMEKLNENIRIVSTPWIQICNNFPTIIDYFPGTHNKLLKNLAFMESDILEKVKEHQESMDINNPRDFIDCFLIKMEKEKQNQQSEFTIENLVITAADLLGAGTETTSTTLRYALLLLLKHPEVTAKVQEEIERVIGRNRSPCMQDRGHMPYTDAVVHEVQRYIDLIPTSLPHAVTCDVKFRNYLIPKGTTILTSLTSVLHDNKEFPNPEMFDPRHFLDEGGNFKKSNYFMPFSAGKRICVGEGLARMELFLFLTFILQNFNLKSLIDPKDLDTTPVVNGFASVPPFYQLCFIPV
Sequence of Mu-type opioid receptor (P35372 whole entry): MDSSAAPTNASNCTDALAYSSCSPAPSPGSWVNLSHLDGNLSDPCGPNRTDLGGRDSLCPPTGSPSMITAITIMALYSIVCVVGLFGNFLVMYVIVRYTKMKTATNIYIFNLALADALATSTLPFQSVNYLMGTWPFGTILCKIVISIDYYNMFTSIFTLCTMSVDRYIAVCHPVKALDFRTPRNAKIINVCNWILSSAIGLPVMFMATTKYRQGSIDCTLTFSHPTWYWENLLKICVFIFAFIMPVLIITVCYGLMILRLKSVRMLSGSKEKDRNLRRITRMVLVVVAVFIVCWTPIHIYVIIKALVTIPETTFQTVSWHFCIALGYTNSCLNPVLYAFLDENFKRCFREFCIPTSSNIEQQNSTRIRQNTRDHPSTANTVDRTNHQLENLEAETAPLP
Sequence of Cytochrome P450 2C9 (P11712 whole entry): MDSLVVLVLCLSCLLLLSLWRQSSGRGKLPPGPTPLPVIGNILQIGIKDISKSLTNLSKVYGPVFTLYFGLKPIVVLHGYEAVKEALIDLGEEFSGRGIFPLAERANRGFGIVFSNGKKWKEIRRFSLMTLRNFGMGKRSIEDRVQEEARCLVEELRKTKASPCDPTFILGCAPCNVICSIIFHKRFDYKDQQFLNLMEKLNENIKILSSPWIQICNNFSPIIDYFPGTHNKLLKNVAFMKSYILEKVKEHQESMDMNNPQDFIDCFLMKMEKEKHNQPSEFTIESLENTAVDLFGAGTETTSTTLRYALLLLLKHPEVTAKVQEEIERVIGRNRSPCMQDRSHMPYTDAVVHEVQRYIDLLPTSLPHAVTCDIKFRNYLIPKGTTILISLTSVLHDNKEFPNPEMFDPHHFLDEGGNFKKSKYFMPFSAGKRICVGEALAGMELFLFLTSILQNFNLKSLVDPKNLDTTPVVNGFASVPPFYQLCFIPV
Sequence of Induced myeloid leukemia cell differentiation protein Mcl-1 (Q07820 whole entry): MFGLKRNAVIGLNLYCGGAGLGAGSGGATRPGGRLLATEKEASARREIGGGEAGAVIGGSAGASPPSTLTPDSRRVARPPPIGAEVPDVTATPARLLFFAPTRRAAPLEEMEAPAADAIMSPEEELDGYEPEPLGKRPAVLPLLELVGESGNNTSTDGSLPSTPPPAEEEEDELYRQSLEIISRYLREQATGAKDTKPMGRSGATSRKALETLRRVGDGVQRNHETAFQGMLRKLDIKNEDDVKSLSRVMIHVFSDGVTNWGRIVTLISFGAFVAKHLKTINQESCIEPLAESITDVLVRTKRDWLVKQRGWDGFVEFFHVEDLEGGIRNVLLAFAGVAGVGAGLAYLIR
Sequence of 5-hydroxytryptamine receptor 5A (P47898 whole entry): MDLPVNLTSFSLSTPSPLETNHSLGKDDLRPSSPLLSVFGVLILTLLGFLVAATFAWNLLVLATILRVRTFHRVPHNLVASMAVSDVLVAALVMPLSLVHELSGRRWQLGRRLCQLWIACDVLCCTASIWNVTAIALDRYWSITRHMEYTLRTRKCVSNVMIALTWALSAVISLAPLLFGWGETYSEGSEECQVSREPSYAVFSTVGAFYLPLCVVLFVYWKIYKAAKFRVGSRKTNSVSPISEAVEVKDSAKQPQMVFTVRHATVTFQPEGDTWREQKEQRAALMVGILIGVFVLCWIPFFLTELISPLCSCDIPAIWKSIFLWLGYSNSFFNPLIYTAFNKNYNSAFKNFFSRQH
Sequence of Delta-type opioid receptor (P41143 whole entry): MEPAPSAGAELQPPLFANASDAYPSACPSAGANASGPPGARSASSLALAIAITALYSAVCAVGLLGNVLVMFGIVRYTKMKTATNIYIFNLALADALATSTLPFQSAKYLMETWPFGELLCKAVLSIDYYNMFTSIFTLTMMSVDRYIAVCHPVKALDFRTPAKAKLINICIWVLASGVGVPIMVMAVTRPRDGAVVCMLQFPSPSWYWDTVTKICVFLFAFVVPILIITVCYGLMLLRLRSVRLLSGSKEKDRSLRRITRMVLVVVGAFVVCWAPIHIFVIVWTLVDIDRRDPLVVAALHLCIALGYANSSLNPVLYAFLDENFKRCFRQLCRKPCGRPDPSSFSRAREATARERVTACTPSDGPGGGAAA

## N#Cc1cccc(NC(=O)N2CC3(CCN(C(=O)c4cccc(F)c4)CC3)C2)c1
[1]
  AC50: inconclusive

## Oc1ccc(Br)cc1/C=N/N1CCCCC1
[2]
  EC50: 4.76 µM (active)
[3]
  EC50: > 120 µM (not active)
[4]
  AC50: 41.4 µM (active)
[5]
  EC50: > 120 µM (not active)

## Cn1c(=O)[nH]c(=O)c2c1nc(CN1CCOCC1)n2Cc1ccccc1
[1]
  AC50: inconclusive

## Cc1cc(=O)oc2cc(NC(=O)C3COc4ccccc4O3)ccc12 (stereo not given)
[6]
  EC50: > 92.5 µM (inactive)
[7]
  EC50: > 92.5 µM (inactive)
[8]
  EC50: > 92.5 µM (inactive)

## Nc1nc(N)c2cc(Sc3ccc4ccccc4c3)ccc2n1
[9]
  EC50: > 150 µM (inconclusive)
[10]
  EC50: 2.83 µM (active)
[11]
  EC50: 9.21 µM (active)
[12]
  EC50: 2.96 µM (active)
[13]
  EC50: 2.06 µM (active)
[14]
  AC50: 7.99 µM (active)
[15]
  EC50: 1.38 µM (active)
[16]
  EC50: > 20 µM (inactive)
[17]
  IC50: 5.21 µM (active)
[18]
  EC50: 0.148 µM (active)
[19]
  EC50: 5.4 µM (inconclusive)
[20]
  IC50: 3.67 µM (active)
[21]
  IC50: > 20 µM (inactive)
[22]
  IC50: 11.5 µM (active)
[23]
  IC50: > 20 µM (inactive)
[24]
  CC50: 0.8 µM (active)

## COc1ccc(-c2nnc(-c3ccc(OCC(C)C)cc3)o2)cc1
[1]
  AC50: inconclusive
[25]
  AC50: 20 µM (inconclusive)
[26]
  AC50: 7.08 µM (inconclusive)

## Nn1c(SCC(=O)NC(=O)NCc2ccco2)nnc1-c1ccc(OC(F)F)cc1
[27]
  IC50: 3.75 µM (active)

## Cc1ccc(Cl)cc1N1CCN(C(=O)CN(c2ccccc2)S(=O)(=O)N(C)C)CC1
[27]
  IC50: 5.49 µM (active)

From ChEMBL document CHEMBL1201862, “PubChem BioAssay data set” (2004)
